The text below walks through data of US10322133B2, “Synthetic lethal drug combination for treating renal cell carcinoma” (Commissariat a l'Energie Atomique et aux Energies …, priority 2015, dated 2019).

Test [1] relates to 786-O VHL^− cells. As to the kind of experiment: FACS cell cycle analysis (Propidium Iodide). Type of test: cell-based, human. Particulars: hypoxic conditions, 48 h. As for the experimental part: FIG. 6: A) FACS analysis of 786-O VHL^− cells treated for 48 h with indicated compounds under hypoxic conditions and labeled with Propidium Iodide for cell cycle analysis.
The test system of test [2] is 786-O VHL^− cells. Description: 3D assay on Multicellular Tumor Spheroids (Propidium Iodide). Type of test: cell-based, human. Particulars: 5 μM, 48 h, P≤0.0001 Kruskal-Wallis. As for the experimental part:
For 3-D culture (spheroids), the spheroids were prepared in 96-wells U-bottom tissue culture plate with low evaporation Lid (Microtest™, Becton Dickinson Labware, San Jose, Calif.) coated with 20 mg/mL of poly-HEMA per well to allow the formation of spheroids. Renal cancer cells 786-O WT, 786-O pBABE and 786-O VHL (taken from exponentially growing cultures) were seeded at a density of […] in RPMI supplemented with 10% FCS. 90 μL (9×10^2 cells) of these cell suspensions were deposed in each well then tissue culture plates were incubated at 37° C. and 5% CO2 for 3 days before drug treatment for further 48 h.
Three days pre-formed spheroids were treated with the different drugs at indicated concentrations during 48 H. After that, Hoechst (200 ng/mL) and Propidium Iodide (1 μg/mL) were added as markers of cell nuclei and cell death respectively. Images of IP and Hoechst fluorescence were acquired at the CMBA platform using the automated microscope ArrayScanVTI (ThermoScientific). ArrayScanVTI is a fluorescent microscope which allows the rapid and fully automated acquisition of images of fixed or live cells in 96-well microplates at different magnifications. Dedicated softwares are used to automatically perform High Content image Analysis like spheroid area measurement, fluorescent intensity measurement of each staining and counting of the number of dead cells.

For test [3], the system named is 786-O VHL^− cells. As to the kind of experiment: Viability assay (PrestoBlue) / high-throughput drug-gene screening. It is filed as cell-based, human. The following applies: for sensitivity of cells to ATM inhibitor after shRNA-mediated knockdown of CK2α (cell viability): shCK2α vs shCTRL 786-O cells, 48 h. Here is the method:
Cytotoxicity was measured using PrestoBlue assay (Invitrogen, Carlsbad, Calif.). Cell lines were seeded in a 96-well microtiter plate at a concentration of 5×10^4 cells/mL. Cells were allowed to attach for 24 hrs at 37° C. and 5% CO2. The cells were exposed to the negative control DMSO or positive drug CX-4945 at 20 μM for 48 h or the other molecules at indicated concentrations. […] DMSO was used as a negative control and 20 μM CX-4945 as a positive control. Plates were further cultured for 48 hrs. Cells were labeled with vital Hoechst (33342) together with Prestoblue and the fluorescence reading was made through the Tecan's Infinite M100 reader. See Flow chart in FIG. 1. Raw data were first imported into the database of the home-made analysis software TAMIS, used for analysis. […] Finally, for each compound X/targeted-shRNA Y pair and assay, the activity percentage obtained with the compound X/Ctrl-shRNA was taken from the compound X/targeted-shRNA Y activity percentage in order to identify compound X/targeted-shRNA Y pair showing additive, or even synergistic, effect compared to compound X/Ctrl-shRNA pair.

For another test, the target named is T1, ATM (Homo sapiens, UniProt Q13315).
T1 construct: endogenous in cells; host or cells: 786-O cells (VHL- and VHL+), cultured under 1.5% O2
T1 sequence (Q13315 whole entry): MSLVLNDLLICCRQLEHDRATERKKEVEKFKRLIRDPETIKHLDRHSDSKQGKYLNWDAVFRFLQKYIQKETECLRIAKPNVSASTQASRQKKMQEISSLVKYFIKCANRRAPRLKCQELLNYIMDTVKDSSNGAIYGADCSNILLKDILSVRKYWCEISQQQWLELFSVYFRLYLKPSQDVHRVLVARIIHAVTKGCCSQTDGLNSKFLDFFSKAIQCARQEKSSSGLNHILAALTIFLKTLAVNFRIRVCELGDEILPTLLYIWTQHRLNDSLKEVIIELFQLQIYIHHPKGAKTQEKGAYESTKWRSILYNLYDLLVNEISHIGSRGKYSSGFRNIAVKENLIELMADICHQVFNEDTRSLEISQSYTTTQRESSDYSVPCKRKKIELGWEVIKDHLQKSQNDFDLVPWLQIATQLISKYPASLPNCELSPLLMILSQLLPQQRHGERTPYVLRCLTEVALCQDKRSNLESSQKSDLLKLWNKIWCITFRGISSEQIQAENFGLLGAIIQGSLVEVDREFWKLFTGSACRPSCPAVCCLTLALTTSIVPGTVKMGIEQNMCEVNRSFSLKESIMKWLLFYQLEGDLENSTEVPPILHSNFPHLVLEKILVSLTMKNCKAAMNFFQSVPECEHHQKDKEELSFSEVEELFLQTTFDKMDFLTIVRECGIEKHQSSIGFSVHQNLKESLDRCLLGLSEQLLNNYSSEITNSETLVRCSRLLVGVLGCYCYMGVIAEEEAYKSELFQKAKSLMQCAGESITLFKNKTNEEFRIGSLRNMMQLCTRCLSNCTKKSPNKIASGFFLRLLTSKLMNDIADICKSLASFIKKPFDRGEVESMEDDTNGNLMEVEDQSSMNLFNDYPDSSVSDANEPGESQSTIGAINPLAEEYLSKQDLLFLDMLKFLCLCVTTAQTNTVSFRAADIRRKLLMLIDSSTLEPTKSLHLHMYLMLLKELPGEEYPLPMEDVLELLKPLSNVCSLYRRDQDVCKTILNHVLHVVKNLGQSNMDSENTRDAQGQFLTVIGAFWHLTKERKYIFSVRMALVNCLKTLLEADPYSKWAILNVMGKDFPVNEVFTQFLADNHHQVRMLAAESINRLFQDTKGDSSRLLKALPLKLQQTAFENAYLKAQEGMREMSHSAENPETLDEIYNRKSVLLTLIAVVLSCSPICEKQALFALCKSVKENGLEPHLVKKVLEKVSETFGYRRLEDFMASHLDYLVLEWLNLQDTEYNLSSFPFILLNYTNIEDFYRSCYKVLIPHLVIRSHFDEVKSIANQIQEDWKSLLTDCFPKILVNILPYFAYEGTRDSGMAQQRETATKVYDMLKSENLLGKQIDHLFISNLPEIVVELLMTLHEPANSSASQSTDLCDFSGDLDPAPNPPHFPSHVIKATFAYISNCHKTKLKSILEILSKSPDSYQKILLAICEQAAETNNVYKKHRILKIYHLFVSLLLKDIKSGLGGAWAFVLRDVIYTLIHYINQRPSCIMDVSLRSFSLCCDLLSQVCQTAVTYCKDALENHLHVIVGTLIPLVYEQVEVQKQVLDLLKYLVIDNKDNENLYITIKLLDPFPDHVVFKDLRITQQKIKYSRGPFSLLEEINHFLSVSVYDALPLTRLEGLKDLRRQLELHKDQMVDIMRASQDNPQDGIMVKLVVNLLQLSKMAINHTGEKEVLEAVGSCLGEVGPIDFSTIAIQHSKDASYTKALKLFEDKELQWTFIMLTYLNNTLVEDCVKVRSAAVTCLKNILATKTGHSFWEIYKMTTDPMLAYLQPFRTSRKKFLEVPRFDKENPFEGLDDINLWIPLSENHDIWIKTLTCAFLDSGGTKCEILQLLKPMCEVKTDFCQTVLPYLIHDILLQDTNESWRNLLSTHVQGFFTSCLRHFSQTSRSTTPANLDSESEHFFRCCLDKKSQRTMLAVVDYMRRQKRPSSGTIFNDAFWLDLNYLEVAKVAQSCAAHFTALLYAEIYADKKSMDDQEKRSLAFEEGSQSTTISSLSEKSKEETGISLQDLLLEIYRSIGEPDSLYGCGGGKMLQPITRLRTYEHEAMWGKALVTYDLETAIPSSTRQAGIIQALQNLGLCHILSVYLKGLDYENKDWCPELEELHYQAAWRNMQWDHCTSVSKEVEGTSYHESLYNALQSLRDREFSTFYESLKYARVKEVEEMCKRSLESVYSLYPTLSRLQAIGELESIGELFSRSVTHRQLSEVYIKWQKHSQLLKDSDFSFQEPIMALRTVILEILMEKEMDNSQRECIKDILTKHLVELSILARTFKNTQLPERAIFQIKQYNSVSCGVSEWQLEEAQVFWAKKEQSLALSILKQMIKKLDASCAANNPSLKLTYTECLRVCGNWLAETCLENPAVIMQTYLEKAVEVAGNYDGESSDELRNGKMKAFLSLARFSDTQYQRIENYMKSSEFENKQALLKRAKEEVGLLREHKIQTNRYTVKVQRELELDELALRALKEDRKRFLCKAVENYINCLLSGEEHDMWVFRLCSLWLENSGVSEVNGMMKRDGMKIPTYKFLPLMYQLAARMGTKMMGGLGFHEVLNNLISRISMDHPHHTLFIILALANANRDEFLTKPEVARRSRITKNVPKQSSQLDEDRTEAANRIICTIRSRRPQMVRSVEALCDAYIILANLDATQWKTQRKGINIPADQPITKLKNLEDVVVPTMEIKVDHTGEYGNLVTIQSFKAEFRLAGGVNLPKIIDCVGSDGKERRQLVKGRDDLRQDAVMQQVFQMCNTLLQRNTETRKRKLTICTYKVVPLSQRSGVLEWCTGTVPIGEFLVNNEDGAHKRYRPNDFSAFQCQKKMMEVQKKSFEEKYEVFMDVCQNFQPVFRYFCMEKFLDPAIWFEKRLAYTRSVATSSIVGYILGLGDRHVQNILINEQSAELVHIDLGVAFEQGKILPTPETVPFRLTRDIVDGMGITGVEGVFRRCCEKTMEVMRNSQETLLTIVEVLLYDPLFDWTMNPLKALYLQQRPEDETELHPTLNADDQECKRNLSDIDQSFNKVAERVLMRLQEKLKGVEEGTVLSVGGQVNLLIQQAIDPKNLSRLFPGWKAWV
As to the kind of experiment: Western blot of ATM phosphorylation in 786-O cells. It is filed as cell-based. Particulars: 786-O VHL^+/−, 1.5% O2, 5 μM, 48 h. Here is the method: Blotted membranes were blocked during 1 h at room temperature with saturation buffer (1% BSA in TBST), and then incubated with primary antibody diluted in saturation buffer, during 1 h 30. Secondary antibodies were added for 1 hour.

On to `O=C(O)c1ccc2c(c1)nc(Nc1cccc(Cl)c1)c1ccncc12` [CX-4945, 5-(3-chlorophenylamino)benzo[c][2,6]naphthyridine-8-carboxylic acid], for which the “effect on G1 phase” value in the test with 786-O VHL^− cells [1] is recorded as “without effect”. For the same molecule, in the test with 786-O VHL^− cells [2], the “cell death in shATM MTS versus vehicle” value is recorded as “Significant difference”.

For `O=c1cc(-c2cccc3c2Sc2ccccc2S3)oc(N2CCOCC2)c1` [KU-55933, 2-Morpholin-4-yl-6-thianthren-1-yl-pyran-4-one], the “sensitivity of cells to ATM inhibitor after shRNA-mediated knockdown of CK2α (cell viability)” value with 786-O VHL^− cells [3] is on record as “enhanced the sensitivity”.

With `C[C@@H]1CN(CC(=O)Nc2ccc3c(c2)Cc2cccc(-c4cc(=O)cc(N5CCOCC5)o4)c2S3)C[C@H](C)O1` [KU-60019, 2-((2S,6R)-2,6-dimethylmorpholino)-N-(5-(6-morpholino-4-oxo-4H-pyran-2-yl)-9H-thioxanthen-2-yl)acetamide], in the test with 786-O VHL^− cells [3] (786-O cell viability, with CK2 inhibitors (FIG. 2C)), the “efficiency of ATM inhibitor compared with KU-55933” value was “significantly more efficient”. Also, the “sensitivity of cells to ATM inhibitor after shRNA-mediated knockdown of CK2α (cell viability)” value in the test with 786-O VHL^− cells [3] is listed as “enhanced the sensitivity”. On ATM, the “inhibition of ATM (phosphorylation of P-ATM Ser1981)” value is listed as “clearly inhibited”. In addition, the “cell death in shCK2α MTS versus vehicle (DMSO)” value in the test on 786-O VHL^− cells [2] is listed as “Significant difference”.
